# Where a SMILES comes first, the peptide text is derived from it. Bridges are numbered along the chain shown (N, C = ends). [ ]: non-standard residue; d: D form. Bip(4'-NHAc) = CC(=O)Nc1ccc(-c2ccc(C[C@H](N)C(=O)O)cc2)cc1; Ala(4-isoquinolinyl) = N[C@@H](Cc1cncc2ccccc12)C(=O)O; Phe(3,4,5-F3) = N[C@@H](Cc1cc(F)c(F)c(F)c1)C(=O)O; Phe(3,4-Cl2) = N[C@@H](Cc1ccc(Cl)c(Cl)c1)C(=O)O; Phe(3,4-F2) = N[C@@H](Cc1ccc(F)c(F)c1)C(=O)O; Phe(3,5-F2) = N[C@@H](Cc1cc(F)cc(F)c1)C(=O)O; Bip = N[C@@H](Cc1ccc(-c2ccccc2)cc1)C(=O)O; hPhe = N[C@@H](CCc1ccccc1)C(=O)O; Aad = N[C@@H](CCCC(=O)O)C(=O)O; Cha = N[C@@H](CC1CCCCC1)C(=O)O; Cit = NC(=O)NCCC[C@H](N)C(=O)O; Orn = NCCC[C@H](N)C(=O)O; Dab = NCC[C@H](N)C(=O)O; Dap = NC[C@H](N)C(=O)O
# Target: T1, human PD-1 / PD-L1-Ig binding on Jurkat cell line over-expressing human PD-1 (Jurkat-PD-1) (Homo sapiens, UniProt Q15116)
# T1 construct: expressed in transfected cells; host or cells: Jurkat
# T1 sequence (Q15116 25-288): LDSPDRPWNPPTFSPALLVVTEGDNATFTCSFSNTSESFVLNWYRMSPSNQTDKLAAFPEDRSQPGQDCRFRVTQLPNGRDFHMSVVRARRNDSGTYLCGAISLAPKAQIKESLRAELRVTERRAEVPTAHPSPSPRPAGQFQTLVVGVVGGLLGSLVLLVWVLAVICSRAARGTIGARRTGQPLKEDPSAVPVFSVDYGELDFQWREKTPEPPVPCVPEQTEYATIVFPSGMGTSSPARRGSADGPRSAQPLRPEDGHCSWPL
# Assay: Jurkat-PD-1 Cell Binding High-Content Screening Assay (CBA)
# Assay type: cell-based
# Settings: Jurkat-PD-1 cells, PE-labeled PD-L1-Ig 20 nM final; read-out: Jurkat HPD1_PDL1 IC50
# Procedure, shortened: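 PE-PD-L1-Ig 20 nM final; cells in DMEM/10% FCS; cpd pre-incubation 2 h, 37° C; ligand 1 h; PFA fix + Hoechst 33342; high-content imaging read-out.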
row,SMILES,IC50
1,CC(C)C[C@H]1NC(=O)[C@H](CCCN)NC(=O)[C@H](CCCNC(N)=O)NC(=O)[C@H](Cc2ccc(-c3ccccc3)cc2)NC(=O)[C@H](C(C)C)NC(=O)[C@H](Cc2c[nH]c3ccccc23)NC(=O)[C@H](CC(=O)O)NC(=O)[C@H](Cc2cccc3ccccc23)NC(=O)[C@H](CN)NC(=O)CSC[C@@H](C(=O)N[C@@H](C)C(N)=O)NC(=O)[C@H]([C@@H](C)O)NC(=O)[C@H](C(C)C)NC(=O)[C@H](CC2CCCCC2)NC(=O)[C@H](CCN)NC1=O [Compound 2115],53.4 nM
2,CC(C)C[C@H]1NC(=O)[C@H](CCCN)NC(=O)[C@H](CCCNC(N)=O)NC(=O)[C@H](Cc2ccc(-c3ccccc3)cc2)NC(=O)[C@H](C(C)C)NC(=O)[C@H](Cc2c[nH]c3ccccc23)NC(=O)[C@H](CC(=O)O)NC(=O)[C@H](Cc2ccc3ncccc3c2)NC(=O)[C@H](CN)NC(=O)CSC[C@@H](C(=O)N[C@@H](C)C(N)=O)NC(=O)[C@H]([C@@H](C)O)NC(=O)[C@H](C(C)C)NC(=O)[C@H](CC2CCCCC2)NC(=O)[C@H](CCN)NC1=O [Compound 2116],8.9 nM
3,CC(C)C[C@H]1NC(=O)[C@H](CCCN)NC(=O)[C@H](CCCNC(N)=O)NC(=O)[C@H](Cc2ccc(-c3ccccc3)cc2)NC(=O)[C@H](C(C)C)NC(=O)[C@H](Cc2c[nH]c3ccccc23)NC(=O)[C@H](CC(=O)O)NC(=O)[C@H](Cc2ccc3ccncc3c2)NC(=O)[C@H](CN)NC(=O)CSC[C@@H](C(=O)N[C@@H](C)C(N)=O)NC(=O)[C@H]([C@@H](C)O)NC(=O)[C@H](C(C)C)NC(=O)[C@H](CC2CCCCC2)NC(=O)[C@H](CCN)NC1=O [Compound 2117],18.7 nM
4,CC(C)C[C@H]1NC(=O)[C@H](CCCN)NC(=O)[C@H](CCCNC(N)=O)NC(=O)[C@H](Cc2ccc(-c3ccccc3)cc2)NC(=O)[C@H](C(C)C)NC(=O)[C@H](Cc2c[nH]c3ccccc23)NC(=O)[C@H](CC(=O)O)NC(=O)[C@H](Cc2cncc3ccccc23)NC(=O)[C@H](CN)NC(=O)CSC[C@@H](C(=O)N[C@@H](C)C(N)=O)NC(=O)[C@H]([C@@H](C)O)NC(=O)[C@H](C(C)C)NC(=O)[C@H](CC2CCCCC2)NC(=O)[C@H](CCN)NC1=O [Compound 2118] ({CH2CO}-[Dap][Ala(4-isoquinolinyl)]DWV[Bip][Cit][Orn][dL][Dab][Cha]VTCA-NH2; thioether N-14),62.6 nM
5,CC(C)C[C@H]1NC(=O)[C@H](CCCN)NC(=O)[C@H](CCCNC(N)=O)NC(=O)[C@H](Cc2ccc(-c3ccccc3)cc2)NC(=O)[C@H](C(C)C)NC(=O)[C@H](Cc2c[nH]c3ccccc23)NC(=O)[C@H](CC(=O)O)NC(=O)[C@H](CC(=O)O)NC(=O)[C@H](CN)NC(=O)CSC[C@@H](C(=O)N[C@@H](C)C(N)=O)NC(=O)[C@H]([C@@H](C)O)NC(=O)[C@H](C(C)C)NC(=O)[C@H](CC2CCCCC2)NC(=O)[C@H](CCN)NC1=O [Compound 2120] ({CH2CO}-[Dap]DDWV[Bip][Cit][Orn][dL][Dab][Cha]VTCA-NH2; thioether N-14),964 nM
6,CC(C)C[C@H]1NC(=O)[C@H](CCCN)NC(=O)[C@H](CCCNC(N)=O)NC(=O)[C@H](Cc2ccc(-c3ccccc3)cc2)NC(=O)[C@H](C(C)C)NC(=O)[C@H](Cc2c[nH]c3ccccc23)NC(=O)[C@H](CC(=O)O)NC(=O)[C@H](CCC(=O)O)NC(=O)[C@H](CN)NC(=O)CSC[C@@H](C(=O)N[C@@H](C)C(N)=O)NC(=O)[C@H]([C@@H](C)O)NC(=O)[C@H](C(C)C)NC(=O)[C@H](CC2CCCCC2)NC(=O)[C@H](CCN)NC1=O [Compound 2121] ({CH2CO}-[Dap]EDWV[Bip][Cit][Orn][dL][Dab][Cha]VTCA-NH2; thioether N-14),232 nM
7,CC(C)C[C@H]1NC(=O)[C@H](CCCN)NC(=O)[C@H](CCCNC(N)=O)NC(=O)[C@H](Cc2ccc(-c3ccccc3)cc2)NC(=O)[C@H](C(C)C)NC(=O)[C@H](Cc2c[nH]c3ccccc23)NC(=O)[C@H](CC(=O)O)NC(=O)[C@H](Cc2c[nH]c3ccccc23)NC(=O)[C@H](CN)NC(=O)CSC[C@@H](C(=O)N[C@@H](C)C(N)=O)NC(=O)[C@H]([C@@H](C)O)NC(=O)[C@H](C(C)C)NC(=O)[C@H](CC2CCCCC2)NC(=O)[C@H](CCN)NC1=O [Compound 2122] ({CH2CO}-[Dap]WDWV[Bip][Cit][Orn][dL][Dab][Cha]VTCA-NH2; thioether N-14),31.3 nM
8,CC(=O)Nc1ccc(-c2ccc(C[C@@H]3NC(=O)[C@H](CN)NC(=O)CSC[C@@H](C(=O)N[C@@H](C)C(N)=O)NC(=O)[C@H]([C@@H](C)O)NC(=O)[C@H](C(C)C)NC(=O)[C@H](CC4CCCCC4)NC(=O)[C@H](CCN)NC(=O)[C@@H](CC(C)C)NC(=O)[C@H](CCCN)NC(=O)[C@H](CCCNC(N)=O)NC(=O)[C@H](Cc4ccc(-c5ccccc5)cc4)NC(=O)[C@H](C(C)C)NC(=O)[C@H](Cc4c[nH]c5ccccc45)NC(=O)[C@H](CC(=O)O)NC3=O)cc2)cc1 [Compound 2124] ({CH2CO}-[Dap][Bip(4'-NHAc)]DWV[Bip][Cit][Orn][dL][Dab][Cha]VTCA-NH2; thioether N-14),22.6 nM
9,CC(C)C[C@H]1NC(=O)[C@H](CCCN)NC(=O)[C@H](CCCNC(N)=O)NC(=O)[C@H](Cc2ccc(-c3ccccc3)cc2)NC(=O)[C@H](C(C)C)NC(=O)[C@H](Cc2c[nH]c3ccccc23)NC(=O)[C@H](CC(=O)O)NC(=O)[C@H](CCCC(=O)O)NC(=O)[C@H](CN)NC(=O)CSC[C@@H](C(=O)N[C@@H](C)C(N)=O)NC(=O)[C@H]([C@@H](C)O)NC(=O)[C@H](C(C)C)NC(=O)[C@H](CC2CCCCC2)NC(=O)[C@H](CCN)NC1=O [Compound 2125] ({CH2CO}-[Dap][Aad]DWV[Bip][Cit][Orn][dL][Dab][Cha]VTCA-NH2; thioether N-14),57.1 nM
10,CC(C)C[C@H]1NC(=O)[C@H](CCCN)NC(=O)[C@H](CCCNC(N)=O)NC(=O)[C@H](Cc2ccc(-c3ccccc3)cc2)NC(=O)[C@H](C(C)C)NC(=O)[C@H](Cc2c[nH]c3ccccc23)NC(=O)[C@H](CC(=O)O)NC(=O)[C@H](CCc2ccccc2)NC(=O)[C@H](CN)NC(=O)CSC[C@@H](C(=O)N[C@@H](C)C(N)=O)NC(=O)[C@H]([C@@H](C)O)NC(=O)[C@H](C(C)C)NC(=O)[C@H](CC2CCCCC2)NC(=O)[C@H](CCN)NC1=O [Compound 2126] ({CH2CO}-[Dap][hPhe]DWV[Bip][Cit][Orn][dL][Dab][Cha]VTCA-NH2; thioether N-14),7.9 nM
11,"CC(C)C[C@H]1NC(=O)[C@H](CCCN)NC(=O)[C@H](CCCNC(N)=O)NC(=O)[C@H](Cc2ccc(-c3ccccc3)cc2)NC(=O)[C@H](C(C)C)NC(=O)[C@H](Cc2c[nH]c3ccccc23)NC(=O)[C@H](CC(=O)O)NC(=O)[C@H](Cc2cc(F)c(F)c(F)c2)NC(=O)[C@H](CN)NC(=O)CSC[C@@H](C(=O)N[C@@H](C)C(N)=O)NC(=O)[C@H]([C@@H](C)O)NC(=O)[C@H](C(C)C)NC(=O)[C@H](CC2CCCCC2)NC(=O)[C@H](CCN)NC1=O [Compound 2127] ({CH2CO}-[Dap][Phe(3,4,5-F3)]DWV[Bip][Cit][Orn][dL][Dab][Cha]VTCA-NH2; thioether N-14)",47.4 nM
12,CC(C)C[C@H]1NC(=O)[C@H](CCCN)NC(=O)[C@H](CCCNC(N)=O)NC(=O)[C@H](Cc2ccc(-c3ccccc3)cc2)NC(=O)[C@H](C(C)C)NC(=O)[C@H](Cc2c[nH]c3ccccc23)NC(=O)[C@H](CC(=O)O)NC(=O)[C@H](Cc2cccs2)NC(=O)[C@H](CN)NC(=O)CSC[C@@H](C(=O)N[C@@H](C)C(N)=O)NC(=O)[C@H]([C@@H](C)O)NC(=O)[C@H](C(C)C)NC(=O)[C@H](CC2CCCCC2)NC(=O)[C@H](CCN)NC1=O [Compound 2128],7.5 nM
13,"CC(C)C[C@H]1NC(=O)[C@H](CCCN)NC(=O)[C@H](CCCNC(N)=O)NC(=O)[C@H](Cc2ccc(-c3ccccc3)cc2)NC(=O)[C@H](C(C)C)NC(=O)[C@H](Cc2c[nH]c3ccccc23)NC(=O)[C@H](CC(=O)O)NC(=O)[C@H](Cc2ccc(F)c(F)c2)NC(=O)[C@H](CN)NC(=O)CSC[C@@H](C(=O)N[C@@H](C)C(N)=O)NC(=O)[C@H]([C@@H](C)O)NC(=O)[C@H](C(C)C)NC(=O)[C@H](CC2CCCCC2)NC(=O)[C@H](CCN)NC1=O [Compound 2129] ({CH2CO}-[Dap][Phe(3,4-F2)]DWV[Bip][Cit][Orn][dL][Dab][Cha]VTCA-NH2; thioether N-14)",48.2 nM
14,"CC(C)C[C@H]1NC(=O)[C@H](CCCN)NC(=O)[C@H](CCCNC(N)=O)NC(=O)[C@H](Cc2ccc(-c3ccccc3)cc2)NC(=O)[C@H](C(C)C)NC(=O)[C@H](Cc2c[nH]c3ccccc23)NC(=O)[C@H](CC(=O)O)NC(=O)[C@H](Cc2ccc(Cl)c(Cl)c2)NC(=O)[C@H](CN)NC(=O)CSC[C@@H](C(=O)N[C@@H](C)C(N)=O)NC(=O)[C@H]([C@@H](C)O)NC(=O)[C@H](C(C)C)NC(=O)[C@H](CC2CCCCC2)NC(=O)[C@H](CCN)NC1=O [Compound 2130] ({CH2CO}-[Dap][Phe(3,4-Cl2)]DWV[Bip][Cit][Orn][dL][Dab][Cha]VTCA-NH2; thioether N-14)",96.6 nM
15,"CC(C)C[C@H]1NC(=O)[C@H](CCCN)NC(=O)[C@H](CCCNC(N)=O)NC(=O)[C@H](Cc2ccc(-c3ccccc3)cc2)NC(=O)[C@H](C(C)C)NC(=O)[C@H](Cc2c[nH]c3ccccc23)NC(=O)[C@H](CC(=O)O)NC(=O)[C@H](Cc2cc(F)cc(F)c2)NC(=O)[C@H](CN)NC(=O)CSC[C@@H](C(=O)N[C@@H](C)C(N)=O)NC(=O)[C@H]([C@@H](C)O)NC(=O)[C@H](C(C)C)NC(=O)[C@H](CC2CCCCC2)NC(=O)[C@H](CCN)NC1=O [Compound 2131] ({CH2CO}-[Dap][Phe(3,5-F2)]DWV[Bip][Cit][Orn][dL][Dab][Cha]VTCA-NH2; thioether N-14)",37.2 nM
16,CC(C)C[C@H]1NC(=O)[C@H](CCCN)NC(=O)[C@H](CCCNC(N)=O)NC(=O)[C@H](Cc2ccc(-c3ccccc3)cc2)NC(=O)[C@H](C(C)C)NC(=O)[C@H](Cc2c[nH]c3ccccc23)NC(=O)[C@H](CC(=O)O)NC(=O)[C@H](Cc2ccc(C(=O)c3ccccc3)cc2)NC(=O)[C@H](CN)NC(=O)CSC[C@@H](C(=O)N[C@@H](C)C(N)=O)NC(=O)[C@H]([C@@H](C)O)NC(=O)[C@H](C(C)C)NC(=O)[C@H](CC2CCCCC2)NC(=O)[C@H](CCN)NC1=O [Compound 2132],65.2 nM
